ChEMBL document CHEMBL4138105, “LL-37-derived short antimicrobial peptide KR-12-a5 and its d-amino acid substituted analogs with cell selectivity, anti-biofilm activity, synergistic effect with conventional antibiotics, and anti-inflammatory activity” (Eur J Med Chem, 2017)
In brackets after ≈: the same amount, converted by molar mass. Activity calls are given as the source filed them. No cut-off for these calls is given here.

How the values were obtained:
Escherichia coli [1] = test: Antibacterial activity against Escherichia coli KCTC 1682 after 24 hrs; assay type: functional; details: KCTC 1682, 24 h
Pseudomonas aeruginosa [2] = test: Antibacterial activity against Pseudomonas aeruginosa KCTC 1637 after 24 hrs; assay type: functional; details: KCTC 1637, 24 h
Bacillus subtilis = test: Antibacterial activity against Bacillus subtilis KCTC 3068 after 24 hrs; assay type: functional; details: KCTC 3068, 24 h
[3] = tested on: Staphylococcus epidermidis; test: Antibacterial activity against Staphylococcus epidermidis KCTC 1917 after 24 hrs; assay type: functional; details: KCTC 1917, 24 h
Erythrocyte = test: Hemolytic activity in human RBC after 1 hr; assay type: ADME, cell-based
[4] = Therapeutic index, ratio of MHC10 for human RBC to MIC for Escherichia coli KCTC 1682; assay type: toxicity; details: red blood cells (RBC), pooled result: one value given for 6 cell lines, strains, targets or settings, read-out: TI
RAW264.7 [5] = test: Cytotoxicity against mouse RAW264.7 cells up to 128 uM after 48 hrs by MTT assay; assay type: cell-based; details: raw264.7, 48 h
NIH3T3 = test: Cytotoxicity against mouse NIH/3T3 cells up to 128 uM after 48 hrs by MTT assay; assay type: cell-based; details: nih3t3, 48 h
RAW264.7 [6] = test: Anti-inflammatory activity in mouse RAW264.7 cells assessed as reduction in LPS-induced nitric oxide production at 10 to 20 uM after 24 hrs by Griess assay; assay type: functional, cell-based
RAW264.7 [7] = test: Anti-inflammatory activity in mouse RAW264.7 cells assessed as reduction in LPS-induced TNF-alpha production at 10 to 20 uM preincubated for 1 hr followed by LPS stimulation measured after 6 hrs by ELISA; assay type: functional, cell-based
RAW264.7 [8] = test: Anti-inflammatory activity in mouse RAW264.7 cells assessed as reduction in LPS-induced MCP-1 production at 10 to 20 uM preincubated for 1 hr followed by LPS stimulation measured after 6 hrs by ELISA; assay type: functional, cell-based
RAW264.7 [9] = test: Anti-inflammatory activity in mouse RAW264.7 cells assessed as reduction in LPS-induced iNOS mRNA expression at 5 uM after 6 hrs by RT-PCR analysis; assay type: functional, cell-based
RAW264.7 [10] = test: Anti-inflammatory activity in mouse RAW264.7 cells assessed as reduction in LPS-induced TNF-alpha mRNA expression at 10 uM after 3 hrs by RT-PCR analysis; assay type: functional, cell-based
RAW264.7 [11] = test: Anti-inflammatory activity in mouse RAW264.7 cells assessed as reduction in LPS-induced IL-6 mRNA expression at 10 uM after 3 hrs by RT-PCR analysis; assay type: functional, cell-based
RAW264.7 [12] = test: Anti-inflammatory activity in mouse RAW264.7 cells assessed as reduction in LPS-induced MCP-1 mRNA expression at 10 uM after 3 hrs by RT-PCR analysis; assay type: functional, cell-based
Staphylococcus aureus [13] = test: Antibacterial activity against methicillin resistant Staphylococcus aureus CCARM 3090 after 24 hrs; assay type: functional; details: CCARM 3090, 24 h
Pseudomonas aeruginosa [14] = test: Antibacterial activity against multidrug-resistant Pseudomonas aeruginosa CCARM 2095 after 24 hrs; assay type: functional; details: CCARM 2095, 24 h
Pseudomonas aeruginosa [15] = test: Antibacterial activity against multidrug-resistant Pseudomonas aeruginosa CCARM 2109 after 24 hrs; assay type: functional; details: CCARM 2109, 24 h
Enterococcus faecium = test: Antibacterial activity against Vancomycin-resistant Enterococcus faecium ATCC 51559 after 24 hrs; assay type: functional; details: ATCC 51559, 24 h
Escherichia coli [16] = test: Antibacterial activity against Escherichia coli KCTC 1682 in presence of 4.5 mM KCl after 24 hrs; assay type: functional; details: KCTC 1682, 24 h
Escherichia coli [17] = test: Antibacterial activity against Escherichia coli KCTC 1682 in presence of 6 uM NH4Cl after 24 hrs; assay type: functional; details: KCTC 1682, 24 h
Escherichia coli [18] = test: Antibacterial activity against Escherichia coli KCTC 1682 in presence of 1 mM MgCl2 after 24 hrs; assay type: functional; details: KCTC 1682, 24 h
Escherichia coli [19] = test: Antibacterial activity against Escherichia coli KCTC 1682 in presence of 2.5 mM CaCl2 after 24 hrs; assay type: functional; details: KCTC 1682, 24 h
Escherichia coli [20] = test: Antibacterial activity against Escherichia coli KCTC 1682 in presence of 20% human serum after 24 hrs; assay type: functional; details: KCTC 1682, 24 h
Staphylococcus aureus [21] = test: Antibacterial activity against Staphylococcus aureus KCTC 1621 in presence of 150 mM NaCl after 24 hrs; assay type: functional; details: KCTC 1621, 24 h
Staphylococcus aureus [22] = test: Antibacterial activity against Staphylococcus aureus KCTC 1621 in presence of 4.5 mM KCl after 24 hrs; assay type: functional; details: KCTC 1621, 24 h
Staphylococcus aureus [23] = test: Antibacterial activity against Staphylococcus aureus KCTC 1621 in presence of 6 uM NH4Cl after 24 hrs; assay type: functional; details: KCTC 1621, 24 h
Staphylococcus aureus [24] = test: Antibacterial activity against Staphylococcus aureus KCTC 1621 in presence of 1 mM MgCl2 after 24 hrs; assay type: functional; details: KCTC 1621, 24 h
Staphylococcus aureus [25] = test: Antibacterial activity against Staphylococcus aureus KCTC 1621 in presence of 2.5 mM CaCl2 after 24 hrs; assay type: functional; details: KCTC 1621, 24 h
Pseudomonas aeruginosa [26] = test: Antibiofilm activity against multidrug-resistant Pseudomonas aeruginosa CCARM 2095 after 24 hrs by crystal violet staining based assay; assay type: functional
Pseudomonas aeruginosa [27] = test: Synergistic antibacterial activity against multidrug-resistant Pseudomonas aeruginosa CCARM 2095 after 72 hrs in presence of chloramphenicol by chequerboard assay; assay type: functional
Pseudomonas aeruginosa [28] = test: Synergistic antibacterial activity against multidrug-resistant Pseudomonas aeruginosa CCARM 2095 after 72 hrs in presence of oxacillin by chequerboard assay; assay type: functional
Staphylococcus aureus [29] = test: Antibacterial activity against Staphylococcus aureus KCTC 1621 assessed as cytoplasmic membrane depolarization at 2 times MIC by disC3-5 dye based fluorescence assay; assay type: functional, organism-based
Staphylococcus aureus [30] = test: Potency index, ratio of LL-37 MIC to compound MIC for methicillin resistant Staphylococcus aureus CCARM 3089; assay type: functional
Staphylococcus aureus [31] = test: Potency index, ratio of LL-37 MIC to compound MIC for methicillin resistant Staphylococcus aureus CCARM 3095; assay type: functional
Pseudomonas aeruginosa [32] = test: Potency index, ratio of LL-37 MIC to compound MIC for multidrug-resistant Pseudomonas aeruginosa CCARM 2095; assay type: functional
Pseudomonas aeruginosa [33] = test: Potency index, ratio of LL-37 MIC to compound MIC for multidrug-resistant Pseudomonas aeruginosa CCARM 2109; assay type: functional
Staphylococcus aureus [34] = test: Potency index, ratio of melittin MIC to compound MIC for methicillin resistant Staphylococcus aureus CCARM 3089; assay type: functional
Staphylococcus aureus [35] = test: Potency index, ratio of melittin MIC to compound MIC for methicillin resistant Staphylococcus aureus CCARM 3090; assay type: functional
Pseudomonas aeruginosa [36] = test: Potency index, ratio of melittin MIC to compound MIC for multidrug-resistant Pseudomonas aeruginosa CCARM 2095; assay type: functional
Pseudomonas aeruginosa [37] = test: Potency index, ratio of melittin MIC to compound MIC for multidrug-resistant Pseudomonas aeruginosa CCARM 2109; assay type: functional
Lipid bilayer = test: Binding affinity to EYPE/EYPG small unilamellar vesicles assessed as intrinsic tryptophan acrylamide quenching constant by fluorescence assay (reference value: 5.95 to 7.56 /M)
[38] = Binding affinity to EYPC/cholesterol small unilamellar vesicles assessed as intrinsic tryptophan acrylamide quenching constant by fluorescence assay (reference value: 5.95 to 7.56 /M)
Pseudomonas aeruginosa [39] = test: Potency index, ratio of LL-37 MBIC90 to compound MBIC90 for antibiofilm activity against multidrug-resistant Pseudomonas aeruginosa CCARM 2095; assay type: functional

## CC[C@H](C)[C@H](NC(=O)[C@H](CCCNC(=N)N)NC(=O)[C@@H](N)CCCCN)C(=O)N[C@H](C(=O)N[C@@H](CCCCN)C(=O)N[C@@H](CC(C)C)C(=O)N[C@H](CC(C)C)C(=O)N[C@@H](CC(C)C)C(=O)N[C@@H](CCCCN)C(=O)N[C@@H](Cc1c[nH]c2ccccc12)C(=O)N[C@@H](CC(C)C)C(=O)N[C@@H](CCCNC(=N)N)C(N)=O)C(C)C
Escherichia coli [1]
  MIC: 4 µM (≈ 6.26 µg/mL)
Pseudomonas aeruginosa [2]
  MIC: 8 µM (≈ 12.5 µg/mL)
Bacillus subtilis
  MIC: 2 µM (≈ 3.13 µg/mL)
[3]
  MIC: 4 µM (≈ 6.26 µg/mL)
Erythrocyte
  MHC10: 111 µM
[4]
  selectivity ratio: 30
RAW264.7 [5]
  Activity: Non-Toxic
NIH3T3
  Activity: Non-Toxic
RAW264.7 [6]
  Activity: Active
RAW264.7 [7]
  Activity: Active
RAW264.7 [8]
  Activity: Active
RAW264.7 [9]
  Activity: Active
RAW264.7 [10]
  Activity: Active
RAW264.7 [11]
  Activity: Active
RAW264.7 [12]
  Activity: Active
Staphylococcus aureus [13]
  MIC: 4 µM (≈ 6.26 µg/mL)
Pseudomonas aeruginosa [14]
  MIC: 8 µM (≈ 12.5 µg/mL)
Pseudomonas aeruginosa [15]
  MIC: 4 µM (≈ 6.26 µg/mL)
Enterococcus faecium
  MIC: 4 µM (≈ 6.26 µg/mL)
Escherichia coli [16]
  MIC: 4 µM
Escherichia coli [17]
  MIC: 4 µM
Escherichia coli [18]
  MIC: 8 µM
Escherichia coli [19]
  MIC: 16 µM
Escherichia coli [20]
  MIC: 4 µM
Staphylococcus aureus [21]
  MIC: 4 µM
Staphylococcus aureus [22]
  MIC: 2 µM
Staphylococcus aureus [23]
  MIC: 2 µM
Staphylococcus aureus [24]
  MIC: 8 µM
Staphylococcus aureus [25]
  MIC: 4 µM
Pseudomonas aeruginosa [26]
  MBIC90: 8 µM
Pseudomonas aeruginosa [27]
  fractional inhibitory concentration index (FICI): 0.5
Pseudomonas aeruginosa [28]
  fractional inhibitory concentration index (FICI): 0.3125
Staphylococcus aureus [29]
  Activity: Active
Staphylococcus aureus [30]
  Ratio: 2 - 4
Staphylococcus aureus [31]
  Ratio: 2 - 4
Pseudomonas aeruginosa [32]
  Ratio: 2 - 4
Pseudomonas aeruginosa [33]
  Ratio: 2 - 4
Staphylococcus aureus [34]
  Ratio: 2 - 4
Staphylococcus aureus [35]
  Ratio: 2 - 4
Pseudomonas aeruginosa [36]
  Ratio: 2 - 4
Pseudomonas aeruginosa [37]
  Ratio: 2 - 4
Lipid bilayer
  KSV: 1.01 M⁻¹
[38]
  KSV: 2.98 M⁻¹
Pseudomonas aeruginosa [39]
  fold change (FC): 4 - 8
